Laboratory results from patent US6946480B2, “Glutaminyl based DPIV inhibitors” (priority 2002, dated 2005).
“Also recorded” adds a separate entry of the source.

Tests used:
[1] = Plasma stability (half-life of inhibitory potency in human plasma); type: in vitro ADME
Protocol: In order to investigate the stability of glutaminyl pyrrolidine or glutaminyl thiazolidine in human plasma, the activity of DPIV in plasma was determined at a defined time. The average DPIV activity in human plasma was determined as 43.69 U/ml. In the working solution, the plasma was diluted in 0.9% NaCl to fix the DPIV activity level at 25 U/ml.
Plasma and glutaminyl pyrrolidine or glutaminyl thiazolidine in different concentrations (5*10^−5, 2.5*10^−5, 1.25*10^−5M in plasma) were incubated at 37° C. At defined time points samples were taken using a pipette roboter (Gilson 215, Liquid handler, Gilson) and transferred in a microtiter plate containing 5*10^−5M glycylprolylaminomethylcoumarine in 0.9% NaCl+015% Brij per well. After 6 min the reaction was stopped by addition of isoleucylthiazolidine (5*10^−5M in 0.9% NaCl solution).
Fluorescence measurement was performed against 0.9% NaCl in plasma (reference standard) using a plate reader (HTS7000plus, Applied Biosystems, Weiterstadt, Germany). The half-life of the inhibitory potency of glutaminyl pyrrolidine or glutaminyl thiazolidine was calculated by plotting the enzyme activity versus reaction time.

[2] = In vivo inactivation (degradation) after oral administration to Wistar rats, LC/MS; settings: LC/MS of plasma
Protocol: Glutaminyl thiazolidine was administered to Wistar rats orally as described in example 9.
After application of placebo or glutaminyl thiazolidine, arterial blood samples were taken at 2.5, 5, 7.5, 10, 15, 20, 40, 60 and 120 min from the carotid catheter of the conscious unrestrained rats to determine the formation of degradation products of glutaminyl thiazolidine.
For analysis, simple solid phase extraction procedure on C18 cartridges was used to isolate the compounds of interest from the plasma. The extracts were analysed using reversed-phase liquid chromatography on Lichrospher 60 RP Select B column hyphenated with tandem mass spectrometry operating in the APCl positive mode. An internal standard method was used for quantification.

[3] = listed as Glutaminyl thiazolidine

half-life of the inhibitory potency in human plasma ([1]; 37° C., 5*10^−5, 2.5*10^−5, 1.25*10^−5M): no half-time could be determined
stability in human plasma ([1]; over 22 hours): stable in human plasma over 22 hours
degradation in vivo [2]: a degradation of the compound was found
degradation in vivo [2, 3]: degraded
degradation product found in vivo [2, 3]: pyroglutaminyl thiazolidine
SMILES: NC(=O)CCC(N)C(=O)N1CCSC1 (stereo not drawn) [glutaminyl thiazolidine]
degradation product found in vivo [2]: pyroglutaminyl thiazolidine; also recorded: pyroglutamyl thiazolidine
